One data set concerns A549 lung adenocarcinoma. As to the kind of experiment: Human xenograft model of A549 lung adenocarcinoma. It counts as in vivo. Conditions: 150 mg/kg orally twice daily. The procedure:
More detailed analysis of anticancer activity of compound 128 was performed on human xenograft model of A549 lung adenocarcinoma transplanted to CD-1 SCID mice. Animals were transplanted subcutaneously with 2.10^6 A549 cells into lower back. Approximately one month later, majority of animals developed palpable tumors and therapy was initiated. The drug was given orally by gastric gavages in total volume of 200 μl/dose twice daily at dose 150 mg/kg in two chemotherapy cycles (Days 1-3 and 7-9). The compound 128 was solubilized in 5% N-methyl-2-pyrollidine, 30% polyethylene glycol 400, 65% tartar buffer (pH 3.0). Primary endpoint for analysis was reduction of tumor volume (10 mice/group), which was quantified by caliperation. Analysis of treated animals was preformed in comparison with vehicle treated mice. Body weight of experimental animals was also evaluated in parallel in order to reflect toxicity of the therapy. Comparative analysis of tumor volumes and body weights was performed using non-parametric t-test.
For orientation: Xenograft models place foreign cells or tissue in a host animal.

Data set [1] has as its system p53, p21^WAF1, Mcl-1 in MCF-7 cells. Put plainly: Immunoblotting of p53, p21WAF1 and Mcl-1 in MCF-7 cells. It is filed as cell-based, human. On the procedure:
For immunoblotting, cell were detached with rubber policeman and washed three times with ice-cold PBS and lysed in buffer (50 mM Tris, pH 7.4, 250 mM NaCl, 5 mM EDTA, 50 mM NaF, 1 mM Na3VO4, 1% Nonidet P40) containing mixture of protease and phosphatase inhibitors (Sigma-Aldrich, USA). 20 μg of total proteins were separated by SDS-polyacrylamide gel electrophoresis (SDS-PAGE) and transferred onto nitrocellulose membranes. Membranes were blocked in 5% milk and 0.1% Tween 20 in PBS and probed overnight with specific monoclonal antibodies or rabbit polyclonal sera. Primary antibodies specific for p53 (DO-1, in house), p21^WAF1 (118, in house), PARP-1 (2C10, Sigma-Aldrich St Louis, Mo., USA), Mcl-1 (S-19, Santa Cruz, USA), all used at 1 μg/ml. All primary antibodies were diluted in PBS containing 5% powdered milk; 0.1% Tween 20. Peroxidase conjugated rabbit anti-mouse immunoglobulin or porcine anti-rabbit immunoglobulin antisera (DAKO, Denmark) were used as the secondary antibodies and visualised with ECL reagents (Amersham-Pharmacia, Little Chalfont, UK).
The induction of p53 protein was apparent in 4 hrs but enhanced level of p21^WAF1 protein was observed only 12 hours after treatment with compound 128 (FIG. 5). The periods of time 12 and 24 hrs were chosen, since the level of protein expression reached a steady state.
(In general: A western blot detects proteins with antibodies after separation by electrophoresis.)

In the next data set the target is T1, CDK2/cyclin E (Homo sapiens, UniProt P24941).
T1 construct: made in house; host or cells: Sf9 insect cells, baculovirus co-infection
As to the kind of experiment: CDK2/cyclin E kinase inhibition assay. It is filed as biochemical. On the procedure: (§1) Selected compounds were tested for CDK1/cyclin B, CDK2/cyclin E, CDK5/p25, CDK7/cyclin H and CDK9/cyclin T inhibitory activity to determine the basic relationships between their structure and the inhibitory activity. Cdk/cyclin complexes were expressed in Sf9 cells co-infected with appropriate baculoviral construct. The cells were harvested 70 hours post infection in lysis buffer (50 mM Tris pH 7.4, 150 mM NaCl, 5 mM EDTA, 20 mM NaF, 1% Tween 20, protease inhibitors) for 30 min on ice and the soluble fraction was recovered by centrifugation at 14.000 g for […]. The protein extract was stored at −80° C. until use. The final point test system for kinase activity measurement was used to carry out experiments on the kinetics under linear conditions. […] ATP and tested compound in a final volume of 20 μl, all in reaction buffer: 50 mM Hepes pH 7.4, 10 mM MgCl2, 5 mM EGTA, 10 mM 2-glycerolphosphate, 1 mM NaF, 1 mM DTT and protease inhibitors. After 30 min, the incubations were stopped by adding 5% H3PO4 and then the proteins were separated by phosphocellulose binding. The measurement of kinase inhibition employed the digital imaging analyzer BAS 1800. The kinase activity was expressed as a percentage of maximum activity and the IC50 value was determined by graphic analysis. The kinase activity is expressed as a percentage of maximum activity (FIG. 1).

The test system of data set [2] is HOS (human osteogenic sarcoma). Put plainly: Calcein AM cytotoxicity assay, HOS. It is filed as cell-based. Conditions: Homo sapiens, read-out: Cytotoxic activity IC50 (μM) HOS. The text has this:
Cytotoxicity of the compounds is the major property determining their anticancer effect in vivo. One of the parameters used, as the basis for cytotoxicity assays, is the metabolic activity of viable cells. For example, a microtiter assay, which uses the Calcein AM, is now widely used to quantitate cell proliferation and cytotoxicity. For instance, this assay is used in drug screening programs and in chemosensitivity testing. Because only metabolically active cells cleave Calcein AM, these assays detect viable cells exclusively. The quantity of cleaved Calcein AM corresponds to the number of vital cells in the culture. We have been using the following cell lines: MCF7 (human breast adenocarcinoma), K562 (human chronic myelogenous leukaemia), HOS (human osteogenic sarcoma), HeLa (human cervical carcinoma), HL 60 (human promyelocytic leukaemia), G 361 (human malignant melanoma), CEM (human lymphoblastoid leukaemia). All cell lines were grown in DMEM medium (Gibco BRL) supplemented with 10% (v/v) fetal bovine serum and L-glutamine and maintained at 37° C. in a humidified atmosphere with 5% CO2. For cytotoxicity assays, 10^4 cells were seeded into each well of 96 well plate, allowed to stabilize for at least 2 h and then tested compounds were added at various concentrations ranging from 100 to 0.1 μM in triplicates. Three days after drug addition Calcein AM solution (Molecular Probes) was added and let to enter the cells for 1 hour. Fluorescence of viable cells was quantified using Fluoroskan Ascent (Microsystems).

The target in another data set is T2, CDK9/cyclin T (Homo sapiens, UniProt P50750).
T2 construct: made in house; host or cells: Sf9 insect cells, baculovirus co-infection
Put plainly: CDK9/cyclin T kinase inhibition assay. The conditions noted are these: kinase inhibitory activity, 15 μM ATP, (YSPTSPS)3 peptide substrate. It is filed as biochemical. On the procedure: as §1

T2 sequence (P50750 whole entry, species assumed): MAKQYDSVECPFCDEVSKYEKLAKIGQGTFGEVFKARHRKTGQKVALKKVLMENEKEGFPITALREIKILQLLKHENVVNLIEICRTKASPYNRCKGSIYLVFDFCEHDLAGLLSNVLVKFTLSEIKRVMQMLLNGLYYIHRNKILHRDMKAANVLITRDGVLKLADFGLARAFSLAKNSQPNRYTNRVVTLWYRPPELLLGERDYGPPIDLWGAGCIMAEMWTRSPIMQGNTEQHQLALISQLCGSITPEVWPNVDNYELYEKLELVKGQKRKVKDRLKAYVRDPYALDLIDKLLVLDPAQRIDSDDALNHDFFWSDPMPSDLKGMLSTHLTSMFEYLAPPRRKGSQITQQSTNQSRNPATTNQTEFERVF
T2 sequence (O60563 whole entry partner, species assumed): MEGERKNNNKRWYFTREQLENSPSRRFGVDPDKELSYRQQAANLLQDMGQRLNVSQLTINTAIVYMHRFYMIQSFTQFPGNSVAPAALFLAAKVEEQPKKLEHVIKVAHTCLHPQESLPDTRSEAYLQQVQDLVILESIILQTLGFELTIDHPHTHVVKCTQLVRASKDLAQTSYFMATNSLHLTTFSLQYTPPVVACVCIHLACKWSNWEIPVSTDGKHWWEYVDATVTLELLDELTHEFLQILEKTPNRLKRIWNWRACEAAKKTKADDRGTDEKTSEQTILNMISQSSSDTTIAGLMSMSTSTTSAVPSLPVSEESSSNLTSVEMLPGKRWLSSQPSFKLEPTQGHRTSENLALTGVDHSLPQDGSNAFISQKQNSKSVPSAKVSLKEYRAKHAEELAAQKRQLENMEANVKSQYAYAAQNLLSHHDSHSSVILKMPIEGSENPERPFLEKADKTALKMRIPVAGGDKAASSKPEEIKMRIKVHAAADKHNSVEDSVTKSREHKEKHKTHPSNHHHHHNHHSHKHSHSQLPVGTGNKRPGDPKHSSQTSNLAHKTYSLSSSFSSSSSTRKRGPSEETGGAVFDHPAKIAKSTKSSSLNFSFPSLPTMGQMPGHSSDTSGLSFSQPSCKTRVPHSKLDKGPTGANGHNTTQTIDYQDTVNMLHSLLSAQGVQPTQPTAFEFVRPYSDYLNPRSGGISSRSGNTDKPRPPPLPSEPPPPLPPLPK

In general, IC50 refers to the midpoint of a concentration-inhibition curve. As to `CCC(CO)Nc1nc(NCc2cccc(OC)c2O)c2ncn(C(C)C)c2n1` (racemic) [Compound 128, (RS)-2-({6-[(2-hydroxy-3-methoxybenzyl)amino]-9-isopropyl-9-H-purin-2-yl}amino)butan-1-ol], in the data set on A549 lung adenocarcinoma (Days 1-3 and 7-9), the mean survival time was 39.1 days and the tolerability result is listed as “good tolerability”. The tumor volume entry with A549 lung adenocarcinoma (Days 1-3 and 7-9, vs vehicle, P=0.0506) is “significantly smaller tumors”. In the data set with A549 lung adenocarcinoma (significant at Day 52 only), the “body weight of treated animals” value is recorded as “only slight reduction the body weight”. For the same molecule, the “expression of p53, p21^Waf1 and Mcl-1” value in data set [1] (MCF7, 24 h, concentration dependent, immunoblotting) was “accumulation of tumor suppressor protein p53, expression of p53-regulated CDK inhibitor p21^Waf1 and downregulation of antiapoptotic protein Mcl-1”. Also, in data set [1] (MCF-7 cells), the “time after treatment at which enhanced level of p21^WAF1 protein was observed” value stood at 12 h and the “time at which induction of p53 protein was apparent” value worked out at 4 h. Besides, the “inhibition of kinase activity (FIG. 1)” value against CDK2/cyclin E (CDK2/cyclin E) is reported as “inhibition of the CDK2/cyclin E kinase activity”. The molecule also displayed an IC50 against CDK2/cyclin E (kinase inhibitory activity, 15 μM ATP, histone substrate) of 0.07 µM. Also, the IC50 in data set [2] is 5.9 µM. The half-maximal inhibitory concentration (IC50) against CDK9/cyclin T was determined as 0.04 µM.

(Values after US8492391B2, “Substituted 6-(2-hydroxybenzylamino)purine derivatives, their use as medicaments and compositions containing these derivatives” (Univerzita Palackeho V Olomouci, priority 2009, dated 2013).)
